In one experiment the target is T1, STAT 6 (Mus musculus, UniProt P52633).
T1 construct: An STAT 6 reporter cell CI/FW4 was constructed by the above operation; endogenous in cells; host or cells: CI/FW4 (FW4 cell stably carrying the pGL2-CI/bs luciferase reporter)
T1 sequence (P52633 1-837): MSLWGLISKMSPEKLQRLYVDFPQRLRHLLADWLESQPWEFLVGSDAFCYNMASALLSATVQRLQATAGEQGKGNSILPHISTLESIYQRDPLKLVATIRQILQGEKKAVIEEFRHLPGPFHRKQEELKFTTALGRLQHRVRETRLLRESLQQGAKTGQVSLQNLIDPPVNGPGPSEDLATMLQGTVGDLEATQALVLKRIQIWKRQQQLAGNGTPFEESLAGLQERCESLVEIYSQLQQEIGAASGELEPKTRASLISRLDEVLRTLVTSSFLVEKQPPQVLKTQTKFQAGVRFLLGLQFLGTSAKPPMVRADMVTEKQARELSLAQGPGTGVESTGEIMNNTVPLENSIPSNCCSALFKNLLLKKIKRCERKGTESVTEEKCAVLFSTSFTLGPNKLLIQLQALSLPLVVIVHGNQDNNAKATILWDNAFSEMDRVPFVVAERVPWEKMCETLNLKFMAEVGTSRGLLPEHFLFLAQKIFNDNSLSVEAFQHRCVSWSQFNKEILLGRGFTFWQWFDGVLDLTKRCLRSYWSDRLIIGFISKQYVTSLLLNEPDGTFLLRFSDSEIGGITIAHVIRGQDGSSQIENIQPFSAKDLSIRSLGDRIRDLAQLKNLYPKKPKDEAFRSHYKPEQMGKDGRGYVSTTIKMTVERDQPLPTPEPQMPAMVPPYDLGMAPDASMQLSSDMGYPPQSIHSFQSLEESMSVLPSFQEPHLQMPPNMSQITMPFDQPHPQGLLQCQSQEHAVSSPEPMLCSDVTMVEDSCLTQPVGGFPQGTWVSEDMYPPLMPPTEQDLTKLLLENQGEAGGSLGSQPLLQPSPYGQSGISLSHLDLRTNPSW
Nature of the experiment: STAT 6-dependent reporter activity (IL-4-stimulated CI/FW4 luciferase reporter cell). It is filed as cell-based, human. On the procedure: Measurement of STAT 6-Dependent Reporter Activity 1) Construction of STAT 6 Reactive Reporter Plasmid A STAT 6 reporter plasmid pGL2-CI was prepared by the following method. […] Also, […] sequence DNA molecules (SEQ ID NOs:3 and 4) contained in the adenovirus major late promoter were annealed and inserted into BglII and HindIII sites of the same vector. Thereafter, pGL2-CI/bs was constructed by inserting the blasticidin resistance gene of pUCSV-BD (Funakoshi) into BamHI site of the constructed pGL2-CI. 2) Construction of STAT 6 Reporter Cell Gene transfer of […] into a human IL-4 reactive cell FW4 cell (Mol. Cell. Biol., 14: 5433-5440) was carried out by the electroporation method (320 V, 960 μF/0.4 cm cuvette (Nippon Bio-Rad Laboratories)), and 6 μg/ml of blasticidin (Funakoshi) was added 40 hours thereafter to select a resistant cell. Confirmation of constant transfer of the reporter plasmid was carried out by detecting luciferase induce by IL-4 stimulation. An STAT 6 reporter cell CI/FW4 was constructed by the above operation. 3) STAT Reporter Assay Using CI/FW4 Cell Stimulation of the CI/FW4 cell (1×10^4 cells/0.1 ml) with 10 ng/ml of human IL-4 (Genzyme Techne) was carried out using a white 96 well plate (Nunc). In the case of the evaluation of compounds, compound dilutions were added to the wells before inoculating the cells into the 96 well plate. […] Thereafter, 50 μl of a luciferase substrate solution (10 mM Tris-HCl pH 7.8, 5 mM luciferin, 2 mM coenzyme A, 2 mM ATP, 0.5 mM MgCl2 and 2 mM Mg(OH)2) was added, followed by stirring for 1 minute. Then, the luciferase activity was measured using ML3000 luminometer (Dynatech Laboratories, Inc). Inhibitory activities of tested compounds were evaluated in which the luminescence intensity (relative light unit: […] The results are shown in the following Table 26.

The test system of another experiment is T cells. The experiment is described as follows: Th2 differentiation (IL-4 production by differentiated mouse spleen T cells, ELISA). It counts as cell-based. The following applies: inhibition of Th2 differentiation (IL-4 production, ELISA), C57BL/6 mouse spleen T cells. On the procedure: Measurement of Th2 Differentiation
T cells were prepared by removing nylon wool (Wako Pure Chemical Industries)-adhering cells from C57BL/6 mouse (Charles River Japan) spleen cells. Using a 96 well plate to which an anti-CD3ε antibody (10 μg/ml) (Sederlane) had been immobilized in advance, T cells (2×10^5 cells/0.2 ml) were inoculated under stimulation with anti-CD28 antibody (1 μg/ml) (Pharmingen), IL-2 (10 ng/ml) (Peprotech) and IL-4 (10 ng/ml) (Peprotech). After 2 days of the culturing, total volume of the cell suspension was diluted to 2 ml with a medium containing IL-2 (10 ng/ml) and IL-4 (10 ng/ml). The differentiation was induced by further carrying out the culturing for 3 days. By counting the cell density, the cells after differentiation were adjusted to 1×10^6 cells/ml and inoculated into a 96 well plate immobilized with the anti-CD3 ε antibody, in order to induce IL-4 production. The supernatant after 24 hours of the stimulation was recovered, and the IL-4 production was determined by an ELISA method. The antibody used in the ELISA was purchased from Pharmingen. Also, an HRPO-labeled streptoavidin (Amersham Pharmacia) was used in the detection of biotinylated antibody, and a peroxidase color developing reagent (Sumitomo Bakelite) was used in the HRPO color development. In the case of the evaluation of compounds, compound dilutions were added to the wells before the addition of T cells, at the time of the dilution 2 days later, compounds equivalent to the initial concentration were added. Also, regarding the dilution of compounds, dilution was carried out using 10% FBS-containing RPMI 1640 such that the final concentration of DMSO in which each compound was dissolved became 0.1% or less. Inhibitory activity of each tested compound was evaluated in which the IL-4 production when DMSO was added instead of the compound was regarded as 100%, and the IL-4 production when anti-CD28 antibody and IL-4 were not added as 0%.
(In general: An ELISA detects its analyte on a solid surface through an enzyme-linked reagent.)

[1] abbreviates: inhibition ratio at 0.1 μM compound, IL-4-stimulated CI/FW4 cell, luciferase.
Setting [2] is: inhibition ratio at 1 μM compound, IL-4-stimulated CI/FW4 cell, luciferase.

Regarding `NC(=O)c1cnc(Nc2ccc(N3CCOCC3)cc2)nc1NCc1ccccc1` [Example 3, 4-benzylamino-2-{[4-(morpholin-4-yl)phenyl]amino}pyrimidine-5-carboxamide], at STAT 6 (setting [1]), the inhibition (commonly the change of the read-out against control, counted positive when it falls) at 0.1 µM was 100%. Moreover, the inhibition at 1 µM on STAT 6 (setting [2]) was found to be 100%. In addition, in the experiment with T cells, the “Inh (%)” value amounted to 98%.
With `COc1ccccc1CNc1nc(Nc2ccc(N3CCOCC3)cc2)ncc1C(N)=O` [Example 35], on STAT 6 (setting [1]), the “Inh (%) 0.1 μM” value turned out to be 95%. Further, the “Inh (%) 1 μM” value at STAT 6 (setting [2]) was determined as 100%. In addition, in the experiment on T cells, the “Inh (%)” value is 94%.
With `Cc1cccc(Nc2nc(NCCc3ccc(O)c(Cl)c3)ncc2C(N)=O)c1` [Production Example 99], the “inhibition of STAT 6-dependent reporter activity (activity similar to the compounds of Table 26)” value on STAT 6 (CI/FW4 cell, 10 ng/ml human IL-4, luciferase) is listed as “good activity”. Also, the “Inh (%)” value in the experiment on T cells was 85%.

Source of the values: patent US8012959B2, “Diaminopyrimidinecarboxamide derivative” (Astellas Pharma Inc., priority 2002, dated 2011).
